This note sets out measurements from patent US20130072523A1, “ANALOGUES FOR THE TREATMENT OR PREVENTION OF FLAVIVIRUS INFECTIONS” (VERTEX PHARMACEUTICALS INCORPORATED, priority 2009, published 2013).

Structures are written as SMILES.

The assay concerns HCV 1b genotype. The experiment in a line: Cell-based luciferase reporter HCV (Ib) RNA replication assay (Huh-ET replicon cells). Particulars: Hepatitis C virus, 96 h; HCV 1b genotype replicon, 4 days incubation, luciferase readout. An excerpt: Cell-Based Luciferase Reporter HCV (Ib) RNA Replication Assay Cell Culture
Replicon cell lines Huh-5.2 are derived from the Huh-7 hepatocarcinoma cell line are maintained in culture as generally described in Krieger, N; Lohmann, V; Bartenschlager, R. Enhancement of hepatitis C virus RNA replication by cell culture-adaptive mutations. J. Virol. 2001, 75, 4614-4624. The Huh-5.2 cells contain the highly cell culture-adapted replicon I389 Luc-ubi-neo/NS3-375.1 construct that carries, in addition to the neomycin gene, an integrated copy to the firefly luciferase gene (Krieger, N; Lohmann, V; Bartenschlager, R. Enhancement of hepatitis C virus RNA replication by cell culture-adaptive mutations. J. Virol. 2001, 75, 4614-4624). This cell line allows measurement of HCV RNA replication and translation by measuring luciferase activity. It has been previously shown that the luciferase activity tightly follows the replicon RNA level in these cells (Krieger, N; Lohmann, V; Bartenschlager, R. Enhancement of hepatitis C virus RNA replication by cell culture-adaptive mutations. J. Virol. 2001, 75, 4614-4624). The Huh-ET cell line has the same features as those mentioned for Huh-5.2 cell line, except that ET cells are more robust and contain an adaptative mutation in the HCV NS4B gene instead of NS5A. Both cell lines are maintained in cultures at a sub-confluent level (<85%) as the level of replicon RNA is highest in actively proliferating cells. The culture media used for cell passaging consist of DMEM (Gibco BRL Laboratories, Mississauga, ON, Canada) supplemented with 10% foetal bovine serum with 1% penicilin/streptomycin, 1% glutamine, 1% sodium pyruvate, 1% non-essential amino acids, and 180 μg/ml of G418 final concentration. Cells are incubated at 37° C., in an atmosphere of 5% CO2 and passaged twice a week to maintain sub-confluence.
Approximately 3000 viable Huh-ET cells (100 μl) are plated per well in a white opaque 96-well microtiter plate. The cell culture media used for the assay is the same as described above except that it contains no G418 and no phenol red. After an incubation period of 3-4 hours at 37° C. in a 5% CO2 incubator, compounds (100 μl) are added at various concentrations. Cells are then further incubated for 4 days at 37° C. in a 5% CO2 incubator. Thereafter, the culture media is removed and cells are lysed by the addition of 95 μL of the luciferase buffer (luciferin substrate in buffered detergent). Cell lysates are incubated at room temperature and protected from direct light for at least 10 minutes. Plates are read for luciferase counts using a luminometer (Wallac MicroBeta Trilux, Perkin Elmer™, MA, USA).
The 50% inhibitory concentrations (IC50s) for inhibitory effect are determined from dose response curves using eleven concentrations per compound in duplicate. Curves are fitted to data points using nonlinear regression analysis, and IC50s are interpolated from the resulting curve using GraphPad Prism software, version 2.0 (GraphPad Software Inc., San Diego, Calif., USA).
EC50 ranges are presented in micromolar as follows: μM+++<=0.005<++<=5.0<+.
For orientation: Reporter assays use an easily measured gene product as a stand-in for the process of interest.

Usually IC50 stands for the concentration needed to halve the response being measured. Regarding `COC(=O)N[C@H](C(=O)N1CCC[C@H]1c1ncc(C#Cc2ccc(C#Cc3cnc([C@@H]4CCCN4C(=O)[C@@H](NC(=O)OC)C(C)C)[nH]3)c3c2OCO3)[nH]1)C(C)C` [Compound 2], the IC50 was at most 5 nM.
The figure for `COC(=O)N[C@H](C(=O)N1CCC[C@H]1c1ncc(C#Cc2ccc(C#Cc3cnc([C@@H]4CCCN4C(=O)[C@@H](NC(=O)OC)C(C)C)[nH]3)s2)[nH]1)C(C)C` [Compound 3] is at most 5 nM.
With `[2H]c1c([2H])c(C#Cc2cnc([C@@H]3C[C@H](C)CN3C(=O)[C@@H](NC(=O)OC)C(C)C)[nH]2)c([2H])c([2H])c1C#Cc1cnc([C@@H]2C[C@H](C)CN2C(=O)[C@@H](NC(=O)OC)C(C)C)[nH]1` [Compound 5] the figure was at most 5 nM.
With `COC(=O)N[C@H](C(=O)N1C[C@@H](C)C[C@H]1c1nc(C#Cc2ccc3cc(C#Cc4c[nH]c([C@@H]5C[C@H](C)CN5C(=O)[C@@H](NC(=O)OC)C(C)C)n4)ccc3c2)c[nH]1)C(C)C` [Compound 6] the figure was at most 5 nM; with `COC(=O)N[C@H](C(=O)N1C[C@@H](C)C[C@H]1c1nc(C#Cc2ccc(C#Cc3c[nH]c([C@@H]4C[C@H](C)CN4C(=O)[C@@H](NC(=O)OC)[C@@H](C)OC)n3)cc2)c[nH]1)[C@@H](C)OC` [Compound 7], at most 5 nM; with `COC(=O)N[C@H](C(=O)N1C[C@@H](C)C[C@H]1c1ncc(C#Cc2cc(C)c(C#Cc3cnc([C@@H]4C[C@H](C)CN4C(=O)[C@@H](NC(=O)OC)C(C)C)[nH]3)cc2C)[nH]1)C(C)C` [Compound 8], at most 5 nM.
As to `COC(=O)N[C@H](C(=O)N1C[C@H](C)C[C@H]1c1nc(C#Cc2ccc(C#Cc3c[nH]c([C@@H]4C[C@@H](C)CN4C(=O)[C@@H](NC(=O)OC)C(C)C)n3)cc2)c[nH]1)C(C)C` [Compound 9], the IC50 is at most 5 nM.
The figure for `COC(=O)N[C@H](C(=O)N1C[C@@H](C)C[C@H]1c1ncc(C#Cc2cc3sc(C#Cc4cnc([C@@H]5C[C@H](C)CN5C(=O)[C@@H](NC(=O)OC)C(C)C)[nH]4)cc3s2)[nH]1)C(C)C` [Compound 10] is at most 5 nM; for `COC(=O)N(C)[C@H](C(=O)N1C[C@@H](C)C[C@H]1c1ncc(C#Cc2ccc(C#Cc3cnc([C@@H]4C[C@H](C)CN4C(=O)[C@H](C(C)C)N(C)C(=O)OC)[nH]3)cc2)[nH]1)C(C)C` [Compound 11] it is at most 5 nM; for `COC(=O)N[C@H](C(=O)N1C[C@@H](C)C[C@H]1c1ncc(C#Cc2ccc(C#Cc3cnc([C@@H]4C[C@H](C)CN4C(=O)[C@H](C(C)C)N(C)C(=O)OC)[nH]3)cc2)[nH]1)C(C)C` [Compound 12] it is at most 5 nM.
The figure for `COC(=O)N[C@H](C(=O)N1CCC[C@H]1c1nc(C#Cc2ccc(C#Cc3c[nH]c([C@@H]4CCCN4C(=O)[C@@H](NC(=O)OC)C(C)C)n3)c3ocnc23)c[nH]1)C(C)C` [Compound 13] is at most 5 nM; for `COC(=O)N[C@H](C(=O)N1CCC[C@H]1c1nc(C#Cc2cc3sc(C#Cc4c[nH]c([C@@H]5CCCN5C(=O)[C@@H](NC(=O)OC)C(C)C)n4)cc3s2)c[nH]1)C(C)C` [Compound 14] it is at most 5 nM.
With `COC(=O)N[C@H](C(=O)N1CCC[C@H]1c1nc(C#CC#Cc2c[nH]c([C@@H]3CCCN3C(=O)[C@@H](NC(=O)OC)C(C)C)n2)c[nH]1)C(C)C` [Compound 15] the figure was 5 to 5000 nM; with `COC(=O)N[C@H](C(=O)N1C[C@@H](C)C[C@H]1c1nc(C#Cc2ccc(C#Cc3c[nH]c([C@@H]4C[C@H](C)CN4C(=O)[C@@H](NC(=O)OC)C(C)C)n3)c(C)c2)c[nH]1)C(C)C` [Compound 16], at most 5 nM.
Compound `COC(=O)N[C@H](C(=O)N1C[C@@H](C)C[C@H]1c1nc(CCc2ccc(CCc3c[nH]c([C@@H]4C[C@H](C)CN4C(=O)[C@@H](NC(=O)OC)C(C)C)n3)cc2)c[nH]1)C(C)C` [Compound 17] gave an IC50 of 5 to 5000 nM.
With `COC(=O)N[C@H](C(=O)N1C[C@@H](C)C[C@H]1c1nc(C)c(C#Cc2ccc(C#Cc3[nH]c([C@@H]4C[C@H](C)CN4C(=O)[C@@H](NC(=O)OC)C(C)C)nc3C)cc2)[nH]1)C(C)C` [Compound 18], the IC50 is at most 5 nM.
As to `COC(=O)N[C@H](C(=O)N1CCC[C@H]1c1nc(C)c(C#Cc2ccc(C#Cc3[nH]c([C@@H]4CCCN4C(=O)[C@@H](NC(=O)OC)C(C)C)nc3C)cc2)[nH]1)C(C)C` [Compound 19], the IC50 is at most 5 nM.
Compound `COC(=O)N[C@H](C(=O)N1C[C@@H](C)C[C@H]1c1ncc(C#Cc2ccc(C#Cc3[nH]c([C@@H]4C[C@H](C)CN4C(=O)[C@@H](NC(=O)OC)C(C)C)nc3I)cc2)[nH]1)C(C)C` [Compound 20] showed an IC50 of at most 5 nM.
With `COC(=O)N[C@H](C(=O)N1C[C@@H](C)C[C@H]1c1nc(I)c(C#Cc2ccc(C#Cc3[nH]c([C@@H]4C[C@H](C)CN4C(=O)[C@@H](NC(=O)OC)C(C)C)nc3I)cc2)[nH]1)C(C)C` [Compound 21] the figure was at most 5 nM.
`C[C@H]1C[C@@H](c2ncc(C#Cc3ccc(C#Cc4cnc([C@@H]5C[C@H](C)CN5C(=O)OC(C)(C)C)[nH]4)cc3)[nH]2)N(C(=O)OC(C)(C)C)C1` [Compound 23] had an IC50 of 5 to 5000 nM.
The figure for `C[C@@H]1CN[C@H](c2ncc(C#Cc3ccc(C#Cc4cnc([C@@H]5C[C@H](C)CN5)[nH]4)cc3)[nH]2)C1` [Compound 24] is 5 to 5000 nM.
The figure for `COC(=O)N[C@H](C(=O)N1C[C@@H](C)C[C@H]1c1nc(-c2cc3sc(-c4c[nH]c([C@@H]5C[C@H](C)CN5C(=O)[C@@H](NC(=O)OC)C(C)C)n4)cc3s2)c[nH]1)C(C)C` [Compound 26] is at most 5 nM.
`COC(=O)N[C@H](C(=O)N1C[C@@H](C)C[C@@H]1c1ncc(C#Cc2ccc(C#Cc3cnc([C@@H]4C[C@@H](C)CN4C(=O)[C@@H](NC(=O)OC)C(C)C)[nH]3)cc2)[nH]1)C(C)C` [Compound 27] returned an IC50 of 5 to 5000 nM.
With `COC(=O)N[C@H](C(=O)N1C[C@H](C)C[C@H]1c1nc(C)c(C#Cc2ccc(C#Cc3[nH]c([C@@H]4C[C@@H](C)CN4C(=O)[C@@H](NC(=O)OC)C(C)C)nc3C)cc2)[nH]1)C(C)C` [Compound 28] the figure was at most 5 nM.
The figure for `COC(=O)N[C@H](C(=O)N1C[C@@H](C)C[C@H]1c1nc(C)c(C#Cc2cc(F)c(C#Cc3[nH]c([C@@H]4C[C@H](C)CN4C(=O)[C@@H](NC(=O)OC)C(C)C)nc3C)cc2F)[nH]1)C(C)C` [Compound 29] is at most 5 nM.
With `COC(=O)N[C@H](C(=O)N1C[C@@H](C)C[C@H]1c1nc(C)c(C#Cc2ccc(C#Cc3[nH]c([C@@H]4C[C@H](C)CN4C(=O)[C@@H](NC(=O)OC)C(C)C)nc3C)c(F)c2)[nH]1)C(C)C` [Compound 31] the figure was at most 5 nM; with `COC(=O)N[C@@H](C(=O)N1C[C@@H](C)C[C@H]1c1ncc(C#Cc2ccc(C#Cc3cnc([C@@H]4C[C@H](C)CN4C(=O)[C@H](NC(=O)OC)C(C)C)[nH]3)cc2)[nH]1)C(C)C` [Compound 32], 5 to 5000 nM; with `COC(=O)N[C@H](C(=O)N1C[C@@H](C)C[C@H]1c1ncc(C#Cc2ccc(C#Cc3cnc([C@@H]4C[C@H](C)CN4C(=O)[C@H](NC(=O)OC)C(C)C)[nH]3)cc2)[nH]1)C(C)C` [Compound 33], at most 5 nM.
The compound `COC(=O)N[C@H](C(=O)N1C[C@@H](C)C[C@H]1c1ncc(C#Cc2ccc(C#Cc3cnc([C@@H]4C[C@H](C)CN4C(=O)[C@@H](NC(=O)OC)C(C)C)[nH]3)c(F)c2)[nH]1)C(C)C` [Compound 36] came in with an IC50 of at most 5 nM.
The figure for `COC(=O)N[C@H](C(=O)N1C[C@@H](C)C[C@H]1c1nc(C)c(C#Cc2ccc3cc(C#Cc4[nH]c([C@@H]5C[C@H](C)CN5C(=O)[C@@H](NC(=O)OC)C(C)C)nc4C)ccc3c2)[nH]1)C(C)C` [Compound 37] is at most 5 nM.
Turning to `COC(=O)N[C@H](C(=O)N1C[C@H](C)C[C@H]1c1ncc(C#Cc2ccc(C#Cc3cnc([C@@H]4C[C@H](C)CN4C(=O)[C@@H](NC(=O)OC)C(C)C)[nH]3)cc2)[nH]1)C(C)C` [Compound 38], the IC50 is at most 5 nM.
With `COC(=O)N[C@H](C(=O)N1C[C@@H](C)C[C@H]1c1ncc(C#Cc2ccc(C#Cc3cnc([C@@H]4C[C@H](C)CN4)[nH]3)cc2)[nH]1)C(C)C` [Compound 39] the figure was 5 to 5000 nM.
With `COC(=O)N[C@H](C(=O)N1C[C@@H](C)C[C@H]1c1ncc(C#Cc2ccc(C#Cc3cnc([C@@H]4C[C@H](C)CN4C(=O)[C@@H](NC(=O)OC)C(C)C)[nH]3)c3nsnc23)[nH]1)C(C)C` [Compound 40] the figure was at most 5 nM.
